Laboratory results published in patent publication US20210177982A1, “MUCUS-PENETRATING PEPTIDES, DELIVERY VEHICLES AND METHODS OF THERAPY” (DNALite Therapeutics, Inc., priority 2018, published 2021).
Ends that are not written are not given here.

Columns and labels:
[1] = 25° C., RP-HPLC, Ac-X-G-A-K-G-A-G-V-G L-amide; cited from earlier work
[2] = pH 7 (No salt); cited from earlier work
[3] = tested on: mucin from porcine stomach; assay: Peptide mucin interaction assay (dynamic light scattering); type: binding; details: peptide conjugated to DSPE-PEG2k-DBCO at 0.08% mol on MVL5/DOPC/Chol base system with DNA; 0.5 mg/mL mucin, sample:mucin 5:2
Experimental: DSPE-PEG2k-DBCO (Avanti Polar Lipids) was hydrated in water and agitated to form a transparent solution. Synthesized peptides with a lysine containing an azide on the N-terminus were conjugated to it. 2.5× moles of the azide peptides were added to the lipid mix and were left to react overnight. 10× moles of sodium azide were added to the reaction to quench it.
Thin film hydration was used to make a lipid base system composed of MVL5/DOPC/Chol (30/60/10% mol). Briefly, the lipids were dissolved in chloroform: methanol (9:1) and mixed. The lipids were then dried using a rotovap and hydrated in a HEPES-glucose buffer (10 mM HEPES, 230 mM Glucose, pH 7.4) for a final concentration of 1 mM. The lipid suspension was extruded through a 200 nm pore size filter for 20 passes using the NanoSizer MINI (T&T Scientific Corporation, Tennessee). An appropriate amount of DNA was added to the lipid base system for a charge ratio of +3 (assuming MVL5 has a charge ratio of +3 at neutral pH) and the solution was mixed thoroughly and let rest for 20 min. DSPE-PEG2k-DBCO conjugated peptides were added to the base system for a final lipid concentration of 0.08% mol. DSPE-SS-PEG2k was added to the base system for a final lipid concentration of 5% mol. The solutions were incubated for 1 h at 60° C.
For each sample, purified 0.5 mg/mL mucin from porcine stomach (Sigma Aldrich) was added to the sample at a sample:mucin volume ratio of 5:2. Dynamic light scattering was used to measure changes in light scattering in the presence of and without mucin for each sample. […] Thus SEQ ID NO. […] Thus SEQ ID NO. […] Thus SEQ ID NO. […] 4 conjugated systems, where peak shifting was not observed in the presence of mucin. Thus SEQ ID NO. […] 5 conjugated systems where peak shifting was not observed in the presence of mucin. Thus SEQ ID NO. […] 6 conjugated systems where peak shifting was not observed in the presence of mucin. Thus SEQ ID NO. […] FIG. 11 show SEQ ID NO. 7 conjugated systems where peak shifting was not observed in the presence of mucin. Thus SEQ ID NO. […] Thus SEQ ID NO. […] Thus SEQ ID NO. […] Thus, SEQ ID NO. […] Thus SEQ ID NO. […] FIG. 16 show SEQ ID NO. […] Thus SEQ ID NO.

Molecule	ΔtR(Gly), pH 2, 20 mM H3PO4 [1]	ΔtR(Gly), pH 2, 20 mM TFA [1]	ΔtR(Gly), pH 5, 10 mM PO4 Buffer [1]	ΔtR(Gly), pH 7, 10 mM PO4 Buffer +50 mM NaCl [1]	ΔtR(Gly), pH 7, 10 mM PO4 Buffer +50 mM NaClO4 [1]	ΔtR(Gly), pH 7, 10 mM PO4 Buffer, No Salt [1]	interaction with mucin (shift in DLS light intensity peak) [3]	also measured
N[C@@H](CS)C(=O)O [Cys]	8.1	7.6	7.9	9.1	8.2	8.3		
O=C(O)[C@@H]1CCCN1 [Pro]	9.4	9.0	9.4	10.4	9.9	9.7		Fauchere Score [2]: 0.720
NCC(=O)O [Gly, Glycine]	0.0	0.0	0.0	0.0	0.0	0.0		Fauchere Score [2]: 0
CSCC[C@H](N)C(=O)O [Met]	16.1	15.7	16.4	17.3	16.8	16.3		Fauchere Score [2]: 1.230
LIIYRDLISH [SEQ ID NO. 36, reference compound]							disappearance of the system peak was observed demonstrating mucin interaction	
TPKTMTQTYDFS [SEQ ID NO. 4]							found not to interact with mucin	
RWQVGDRADGE [SEQ ID NO. 19]							found to be mucin interacting	
MATKGGTVKA [SEQ ID NO. 1]							found not to interact with mucin	
STSTVSTPVPPPVDDTTWLQSAS [SEQ ID NO. 15]							found to be mucus interacting	
NSGTMQSASRAT [SEQ ID NO. 5]							found not to interact with mucin	
DPVDTPNPTRRKPGK [SEQ ID NO. 24]							found to be mucin interacting	
RQSAGVL [SEQ ID NO. 14]							lack of interaction with mucin	
N[C@@H](Cc1ccccc1)C(=O)O [Phe]	29.1	29.1	30.1	30.1	30.8	29.9		Fauchere Score [2]: 1.79
TSHTDAPPARSP [SEQ ID NO. 34]							found to be mucin interacting	
N[C@@H](CCC(=O)O)C(=O)O [Glu]	3.6	2.8	−0.5	−0.4	−7.1	−0.9		Fauchere Score [2]: −0.640
N[C@@H](CC(=O)O)C(=O)O [Asp]	2.2	1.6	−1.0	−0.8	−7.6	−0.9		Fauchere Score [2]: −0.770
N[C@@H](Cc1c[nH]c2ccccc12)C(=O)O [Trp]	32.3	32.4	33.2	33.0	33.7	32.9		Fauchere Score [2]: 2.250
MAKPAQGAKY [SEQ ID NO. 2]							found to interact with mucin	
ADDLENVNEGMRIH [SEQ ID NO. 21]							found to not be mucin interacting	

Molecule	ΔtR(Gly), pH 2, 20 mM H3PO4 [1]	ΔtR(Gly), pH 2, 20 mM TFA [1]	ΔtR(Gly), pH 5, 10 mM PO4 Buffer [1]	ΔtR(Gly), pH 7, 10 mM PO4 Buffer +50 mM NaCl [1]	ΔtR(Gly), pH 7, 10 mM PO4 Buffer +50 mM NaClO4 [1]	ΔtR(Gly), pH 7, 10 mM PO4 Buffer, No Salt [1]	interaction with mucin (shift in DLS light intensity peak) [3]	also measured
NCCCC[C@H](N)C(=O)O [Lys]	−7.0	2.8	−3.7	−2.0	3.4	−1.1		Fauchere Score [2]: −0.990
N[C@@H](CO)C(=O)O [Ser]	0.0	0.0	0.0	1.2	30.5	0.5		
MSVTGGKMAP [SEQ ID NO. 3]							found to be interacting with mucin	
RQWVGDRA [SEQ ID NO. 17]							found to be mucin interacting	
LSTAADMQGVVTDGMASGLDKDYLKPDD [SEQ ID NO. 22]							found to not interact with mucin	
QAASRVENYMHR [SEQ ID NO. 6]							found not to interact with mucin	
RQSAGVLGFAPTNIDDTSFHA [SEQ ID NO. 16]							found to be mucin interacting	
NYTTYKSHFQDR [SEQ ID NO. 9]							found to interact with mucin	
VGDDSGGFSTTVSTEQNVPDPQV [SEQ ID NO. 20]							not found to be mucin interacting	
CCC[C@H](N)C(=O)O [n-Val, norvaline]	15.4	15.2	15.9	16.9	16.8	16.3		
DATDRFHGPDAL [SEQ ID NO. 26]							found to be mucin interacting	
NIENSTLATPLS [SEQ ID NO. 32]							found to be mucin interacting	
CCCC[C@H](N)C(=O)O [n-Leu, norleucine]	24.6	24.6	25.6	25.9	26.6	25.6		
PSSSSSSRIGDP [SEQ ID NO. 23]							found to be mucin interacting	
EPDNWSLDFPRR [SEQ ID NO. 8]							found to interact with mucin	
YPYDANHTRSPT (not fully specified (N-terminus)) [SEQ ID NO. 10]							found to be interacting with mucin	
TSHTDAPPARSP [SEQ ID NO. 13]							found to be interacting with mucin	
KTIEAHPPYYAS [SEQ ID NO. 7]							found not to interact with mucin	
HPGSPFPPEHRP [SEQ ID NO. 12]							found to be interacting with mucin	
